Laboratory results from ChEMBL document CHEMBL1201862, “PubChem BioAssay data set” (2004).
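Five concentrations, 48 hours, 96-well plates. GI50 = concentration required for 50% inhibition of growth.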 Calls of active or inactive are those of the source. No stated cut-off is given here; in the data, active = GI50 up to about 1.1 µM and inactive = higher.

Legend:
Assay in all cases: NCI tumour cell line growth inhibition, 48 h
[1] = system: KM12
[2] = system: SK-MEL-28
[3] = system: SN12C
[4] = system: HCT-15
[5] = system: HOP-62
[6] = system: SNB-19
[7] = system: MDA-N
[8] = system: HT-29
[9] = system: SK-MEL-2
[10] = system: MDA-MB-231
[11] = system: OVCAR-5
[12] = system: ACHN
[13] = system: Hs-578T
[14] = system: UACC-257
[15] = system: M14
[16] = system: NCI-H23
[17] = system: HOP-92
[18] = system: OVCAR-8
[19] = system: SF-268
[20] = system: 786-0
[21] = system: MDA-MB-435
[22] = system: A549
[23] = system: MCF7
[24] = system: Malme-3M
[25] = system: OVCAR-4
[26] = system: EKVX
[27] = system: SF-295
[28] = system: NCI-H226
[29] = system: BT-549
[30] = system: SK-MEL-5
[31] = system: UO-31
[32] = system: LOX IMVI
[33] = system: UACC-62
[34] = system: PC-3
[35] = system: COLO 205
[36] = system: SW-620
[37] = system: TK-10
[38] = system: DU-145
[39] = system: U-251
[40] = system: HCT-116
[41] = system: IGROV-1
[42] = system: SF-539
[43] = system: NCI/ADR-RES
[44] = system: RXF 393
[45] = system: SNB-75
[46] = system: HCC 2998
[47] = system: NCI-H522
[48] = system: A498
[49] = system: CAKI-1
[50] = system: T47D
[51] = system: OVCAR-3
[52] = system: NCI-H460
[53] = system: SK-OV-3
[54] = system: K562
[55] = system: RPMI-8226
[56] = system: MOLT-4
[57] = system: HL-60
[58] = system: CCRF-CEM

SMILES: CC(=O)n1c(COS(C)(=O)=O)nc2ccccc21
- GI50 [1]: > 100 µM (inactive)
- GI50 [2]: > 100 µM (inactive)
- GI50 [3]: > 100 µM (inactive)
- GI50 [4]: > 100 µM
- GI50 [5]: 50.2 µM (inactive)
- GI50 [6]: > 100 µM (inactive)
- GI50 [7]: > 100 µM (inactive)
- GI50 [8]: > 100 µM (inactive)
- GI50 [9]: > 100 µM (inactive)
- GI50 [10]: > 100 µM (inactive)
- GI50 [11]: > 100 µM (inactive)
- GI50 [12]: > 100 µM (inactive)
- GI50 [13]: > 100 µM (inactive)
- GI50 [14]: > 100 µM (inactive)
- GI50 [15]: > 100 µM (inactive)
- GI50 [16]: > 100 µM (inactive)
- GI50 [17]: > 100 µM (inactive)
- GI50 [18]: > 100 µM (inactive)
- GI50 [19]: > 100 µM (inactive)
- GI50 [20]: > 100 µM (inactive)
- GI50 [21]: > 100 µM (inactive)
- GI50 [22]: > 100 µM (inactive)
- GI50 [23]: 79.3 µM (inactive)
- GI50 [24]: > 100 µM (inactive)
- GI50 [25]: > 100 µM (inactive)
- GI50 [26]: > 100 µM (inactive)
- GI50 [27]: 54 µM (inactive)
- GI50 [28]: > 100 µM (inactive)
- GI50 [29]: > 100 µM (inactive)
- GI50 [30]: > 100 µM (inactive)
- GI50 [31]: > 100 µM (inactive)
- GI50 [32]: > 100 µM (inactive)
- GI50 [33]: > 100 µM (inactive)
- GI50 [34]: > 100 µM (inactive)
- GI50 [35]: > 100 µM (inactive)
- GI50 [36]: > 100 µM (inactive)
- GI50 [37]: > 100 µM (inactive)
- GI50 [38]: > 100 µM (inactive)
- GI50 [39]: > 100 µM (inactive)
- GI50 [40]: > 100 µM (inactive)
- GI50 [41]: 66.1 µM (inactive)
- GI50 [42]: > 100 µM (inactive)
- GI50 [43]: > 100 µM (inactive)
- GI50 [44]: > 100 µM (inactive)
- GI50 [45]: > 100 µM (inactive)
- GI50 [46]: > 100 µM (inactive)
- GI50 [47]: > 100 µM (inactive)
- GI50 [48]: > 100 µM (inactive)
- GI50 [49]: > 100 µM (inactive)
- GI50 [50]: > 100 µM (inactive)
- GI50 [51]: 58.6 µM (inactive)
- GI50 [52]: > 100 µM (inactive)

SMILES: O=S1(=O)c2ccccc2-c2nccc3ccnc1c23
- GI50 [1]: 22.8 µM (inactive)
- GI50 [2]: 55.6 µM (inactive)
- GI50 [3]: 17.8 µM (inactive)
- GI50 [4]: 7.87 µM
- GI50 [5]: 40.7 µM (inactive)
- GI50 [6]: 23.2 µM (inactive)
- GI50 [7]: 7.87 µM (inactive)
- GI50 [8]: 5.58 µM (inactive)
- GI50 [9]: 28.7 µM (inactive)
- GI50 [10]: 17.8 µM (inactive)
- GI50 [11]: 41.2 µM (inactive)
- GI50 [12]: 8.57 µM (inactive)
- GI50 [13]: 32.1 µM (inactive)
- GI50 [14]: 28.5 µM (inactive)
- GI50 [53]: 56.9 µM (inactive)
- GI50 [15]: 19.1 µM (inactive)
- GI50 [16]: 14.6 µM (inactive)
- GI50 [17]: 24.3 µM (inactive)
- GI50 [54]: 4.33 µM (inactive)
- GI50 [18]: 15 µM (inactive)
- GI50 [19]: 23.5 µM (inactive)
- GI50 [20]: 25.5 µM (inactive)
- GI50 [21]: 11.9 µM (inactive)
- GI50 [55]: 16.2 µM (inactive)
- GI50 [23]: 6.4 µM (inactive)
- GI50 [24]: 21.8 µM (inactive)
- GI50 [25]: 37.9 µM (inactive)
- GI50 [26]: 15.4 µM (inactive)
- GI50 [27]: 25 µM (inactive)
- GI50 [28]: 43.5 µM (inactive)
- GI50 [29]: 3.77 µM (inactive)
- GI50 [30]: 4.82 µM (inactive)
- GI50 [31]: 8.24 µM (inactive)
- GI50 [32]: 12.6 µM (inactive)
- GI50 [33]: 7.59 µM (inactive)
- GI50 [34]: 7.31 µM (inactive)
- GI50 [35]: 3.99 µM (inactive)
- GI50 [56]: 2.72 µM (inactive)
- GI50 [36]: 7.23 µM (inactive)
- GI50 [37]: 20.8 µM (inactive)
- GI50 [38]: 11.3 µM (inactive)
- GI50 [39]: 28.1 µM (inactive)
- GI50 [40]: 12.9 µM (inactive)
- GI50 [41]: 7.67 µM (inactive)
- GI50 [42]: 8.57 µM (inactive)
- GI50 [57]: 4.76 µM (inactive)
- GI50 [43]: 20.8 µM (inactive)
- GI50 [44]: 34 µM (inactive)
- GI50 [45]: 27.7 µM (inactive)
- GI50 [46]: 12.8 µM (inactive)
- GI50 [47]: 8.07 µM (inactive)
- GI50 [48]: 27.5 µM (inactive)
- GI50 [49]: 15.3 µM (inactive)
- GI50 [50]: 29.4 µM (inactive)
- GI50 [51]: 10.3 µM (inactive)
- GI50 [52]: 13.1 µM (inactive)
- GI50 [58]: 4.02 µM (inactive)
